One series concerns rgRSV224 virus. Description: Antiviral activity: rgRSV224 (GFP) replication in HeLa cells. The settings on record: human respiratory syncytial virus, 72 h, read-out: RSV HELA EC50.
The next series in a line: in vitro. The settings on record: human.

Counter-ions that a name gives are not always drawn.

Drawing on patent publication US11491157B2, “Cycloalkyl substituted pyrazolopyrimidines having activity against RSV” (priority 2018, dated 2022), this text covers EC50, melting point and CC50 for 19 compounds.

Protocol for in vitro: (§1) Black 384-well clear-bottom microtiter plates (Corning, Amsterdam, The Netherlands) were filled via acoustic drop ejection using the echo liquid handler (Labcyte, Sunnyvale, Calif.). 200 nL of compound stock solutions (100% DMSO) were transferred to the assay plates. 9 serial 4-fold dilutions of compound were made, creating per quadrant the same compound concentration. The assay was initiated by adding 10 μL of culture medium to each well (RPMI medium without phenol red, 10% FBS-heat inactivated, 0.04% gentamycin (50 mg/mL). All addition steps are done by using a multidrop dispenser (Thermo Scientific, Erembodegem, Belgium). Next, rgRSV224 virus (MOI=1) diluted in culture medium was added to the plates. rgRSV224 virus is an engineered virus that includes an additional GFP gene (Hallak L K, Spillmann D, Collins P L, Peeples M E. Glycosaminoglycan sulfation requirements for respiratory syncytial virus infection; Journal of virology (2000), 74(22), 10508-13) and was in-licensed from the NIH (Bethesda, Md., USA). Finally, 20 μL of a HeLa cell suspension (3,000 cells/well) were plated. Medium, virus- and mock-infected controls were included in each test. The wells contain 0.05% DMSO per volume. Cells were incubated at 37° C. in a 5% CO2 atmosphere. Three days post-virus exposure, viral replication was quantified by measuring GFP expression in the cells by an in house developed MSM laser microscope (Tibotec, Beerse, Belgium). The EC50 was defined as the 50% inhibitory concentration for GFP expression. In parallel, compounds were incubated for three days in a set of white 384-well microtiter plates (Corning) and the cytotoxicity of compounds in HeLa cells was determined by measuring the ATP content of the cells using the ATPlite kit (Perkin Elmer, Zaventem, Belgium) according to the manufacturer's instructions. The CC50 was defined as the 50% concentration for cytotoxicity.
Protocol for rgRSV224 virus: as §1

By EC50 is commonly meant the concentration that produces a half-maximal response. By melting point is commonly meant the temperature, or range, at which the solid turns liquid. For the compound `C[C@@H]1c2cc(F)sc2CCN1C(=O)c1cc(C2CC2)n2nc(-c3ccc([C@H]4C[C@@H]4C(N)=O)cc3F)cc2n1` (relative stereo) [Compound 11, (1S,2S)-2-(4-{7-Cyclopropyl-5-[(4*R)-2-fluoro-4-methyl-4,5,6,7-tetrahydro-thieno[3,2-c]pyridine-5-carbonyl]pyrazolo[1,5-a]pyrimidin-2-yl}-3-fluorophenyl)cyclopropane-1-carboxamide], the melting point amounted to 300.14 °C. Also, the EC50 in the series on rgRSV224 virus came to 44 nM.
The compound `C[C@@H]1c2ccccc2CCN1C(=O)c1cc(-c2ccccc2)n2nc(-c3ccc([C@@H]4C[C@H]4C(=O)NS(C)(=O)=O)cc3F)cc2n1` (single isomer, unassigned) (as salt: salt) [Compound 32, (1*R,2*R)-2-(3-Fluoro-4-{5-[(1R)-1-methyl-1,2,3,4-tetrahydroisoquinoline-2-carbonyl]-7-phenylpyrazolo[1,5-a]pyrimidin-2-yl}phenyl)-N-methanesulfonyl-cyclopropane-1-carboxamide; propan-2-amine salt] gave a melting point of 186.79 °C.
On to `C[C@@H]1c2ccsc2CCN1C(=O)c1cc(C2CC2)n2nc(-c3ccc([C@H]4C[C@@H]4C(N)=O)cc3F)cc2n1` (single isomer, unassigned) [Compound 10, (1S,2S)-2-(4-{7-Cyclopropyl-5-[(4*R)-4-methyl-4,5,6,7-tetrahydro-thieno[3,2-c]pyridine-5-carbonyl]pyrazolo[1,5-a]pyrimidin-2-yl}-3-fluorophenyl)cyclopropane-1-carboxamide], for which the melting point came to 302.9 °C. Besides, the EC50 in the series with rgRSV224 virus stood at 14 nM. In “in vitro”, this compound displayed a CC50 at 3 days above 25000 nM.
For `C[C@@H]1c2ccsc2CCN1C(=O)c1cc(C2CC2)n2nc(-c3ccc([C@H]4C[C@@H]4C(=O)NS(C)(=O)=O)cc3F)cc2n1` (single isomer, unassigned) [Compound 28, (1S,2S)-2-(4-{7-Cyclopropyl-5-[(4*R)-4-methyl-4,5,6,7-tetrahydro-thieno[3,2-c]pyridine-5-carbonyl]pyrazolo[1,5-a]pyrimidin-2-yl}-3-fluorophenyl)-N-methanesulfonyl-cyclopropane-1-carboxamide], in that order: 286.12 °C, 37 nM and 53400 nM.
The like results for `C[C@@H]1c2ccccc2CCN1C(=O)c1cc(C2CC2)n2nc(-c3ccc([C@H]4C[C@@H]4c4nnn[nH]4)cc3F)cc2n1` [Compound 4, (1R)-2-(7-Cyclopropyl-2-{2-fluoro-4-[(1S,2S)-2-(1H-1,2,3,4-tetrazol-5-yl)cyclopropyl]phenyl}pyrazolo[1,5-a]pyrimidine-5-carbonyl)-1-methyl-1,2,3,4-tetrahydroisoquinoline] were, in that order, 254.07 °C, 120 nM and 44000 nM.
As for `C[C@@H]1c2ccccc2CCN1C(=O)c1cc(C2CC2)n2nc(-c3ccc([C@H]4C[C@@H]4C(N)=O)cc3F)cc2n1` [Compound 7, (1S,2S)-2-(4-{7-Cyclopropyl-5-[(1R)-1-methyl-1,2,3,4-tetrahydroisoquinoline-2-carbonyl]pyrazolo[1,5-a]pyrimidin-2-yl}-3-fluorophenyl)cyclopropane-1-carboxamide], the melting point was determined as 280.69 °C. Further, in the series on rgRSV224 virus, the 50% effective concentration (EC50) was determined as 30 nM. Besides, in “in vitro”, the CC50 at 3 days is above 100000 nM.
For `CNC(=O)[C@H]1C[C@@H]1c1ccc(-c2cc3nc(C(=O)N4CCc5ccccc5[C@H]4C)cc(C4CC4)n3n2)c(F)c1` [Compound 12, (1S,2S)-2-(4-{7-Cyclopropyl-5-[(1R)-1-methyl-1,2,3,4-tetrahydroisoquinoline-2-carbonyl]pyrazolo[1,5-a]pyrimidin-2-yl}-3-fluorophenyl)-N-methylcyclopropane-1-carboxamide], the melting point is 258.18 °C. For the same compound, the 50% effective concentration (EC50) in the series on rgRSV224 virus amounted to 24 nM. The compound further came in with a CC50 at 3 days in the series “in vitro” above 100000 nM.
`CCCNC(=O)[C@H]1C[C@@H]1c1ccc(-c2cc3nc(C(=O)N4CCc5ccccc5[C@H]4C)cc(C4CC4)n3n2)c(F)c1` [Compound 15, (1S,2S)-2-(4-{7-Cyclopropyl-5-[(1R)-1-methyl-1,2,3,4-tetrahydroisoquinoline-2-carbonyl]pyrazolo[1,5-a]pyrimidin-2-yl}-3-fluorophenyl)-N-propylcyclopropane-1-carboxamide] gave a melting point of 238.1 °C. The 50% effective concentration (EC50) with rgRSV224 virus amounted to 408 nM. For the same compound, the CC50 at 3 days in “in vitro” is above 100000 nM.
For `C=CCNC(=O)[C@H]1C[C@@H]1c1ccc(-c2cc3nc(C(=O)N4CCc5ccccc5[C@H]4C)cc(C4CC4)n3n2)c(F)c1` [Compound 16, (1S,2S)-2-(4-{7-Cyclopropyl-5-[(1R)-1-methyl-1,2,3,4-tetrahydroisoquinoline-2-carbonyl]pyrazolo[1,5-a]pyrimidin-2-yl}-3-fluorophenyl)-N-(prop-2-en-1-yl)cyclopropane-1-carboxamide], the melting point is 240.35 °C. For the same compound, the concentration for a half-maximal effect (EC50) in the series on rgRSV224 virus turned out to be 263 nM. In the series “in vitro”, the CC50 at 3 days is above 100000 nM.
In the case of `C[C@@H]1c2ccccc2CCN1C(=O)c1cc(C2CC2)n2nc(-c3ccc([C@H]4C[C@@H]4C(=O)NCCC#N)cc3F)cc2n1` [Compound 18, (1S,2S)—N-(2-Cyanoethyl)-2-(4-{7-cyclopropyl-5-[(1R)-1-methyl-1,2,3,4-tetrahydro-isoquinoline-2-carbonyl]pyrazolo[1,5-a]pyrimidin-2-yl}-3-fluorophenyl)cyclopropane-1-carboxamide], the melting point came to 212.72 °C. Besides, in the series with rgRSV224 virus, the EC50 was determined as 76 nM. Moreover, the CC50 at 3 days in the series “in vitro” is above 100000 nM.
For `C[C@@H]1c2ccccc2CCN1C(=O)c1cc(C2CC2)n2nc(-c3ccc([C@H]4C[C@@H]4C(=O)NC4COC4)cc3F)cc2n1` [Compound 19, (1S,2S)-2-(4-{7-Cyclopropyl-5-[(1R)-1-methyl-1,2,3,4-tetrahydroisoquinoline-2-carbonyl]-pyrazolo[1,5-a]pyrimidin-2-yl}-3-fluorophenyl)-N-(oxetan-3-yl)cyclopropane-1-carboxamide], in that order: 248.97 °C, 95 nM and above 100000 nM.
The like results for `C[C@@H]1c2ccccc2CCN1C(=O)c1cc(C2CC2)n2nc(-c3ccc([C@H]4C[C@@H]4C(=O)NS(C)(=O)=O)cc3F)cc2n1` [Compound 24, (1S,2S)-2-(4-{7-Cyclopropyl-5-[(1R)-1-methyl-1,2,3,4-tetrahydroisoquinoline-2-carbonyl]pyrazolo[1,5-a]pyrimidin-2-yl}-3-fluorophenyl)-N-methanesulfonyl-cyclopropane-1-carboxamide] were, in that order, 166.75 °C, 20 nM and 44900 nM.
Turning to `C[C@@H]1c2ccccc2CCN1C(=O)c1cc(C2CC2)n2nc(-c3ccc([C@H]4C[C@@H]4NS(C)(=O)=O)cc3F)cc2n1` [Compound 36, N-[(1S,2R)-2-(4-{7-Cyclopropyl-5-[(1R)-1-methyl-1,2,3,4-tetrahydroisoquinoline-2-carbonyl]pyrazolo[1,5-a]pyrimidin-2-yl}-3-fluorophenyl)cyclopropyl]methanesulfonamide], the concentration for a half-maximal effect (EC50) in the series on rgRSV224 virus is 110 nM. Moreover, the CC50 at 3 days in “in vitro” was above 100000 nM.
The like results for `C[C@@H]1c2ccccc2CCN1C(=O)c1cc(C2CC2)n2nc(-c3ccc([C@H]4C[C@@H]4O)cc3F)cc2n1` [Compound 38, (1S,2R)-2-(4-{7-Cyclopropyl-5-[(1R)-1-methyl-1,2,3,4-tetrahydroisoquinoline-2-carbonyl]pyrazolo[1,5-a]pyrimidin-2-yl}-3-fluorophenyl)cyclopropan-1-ol] were, in that order, 159 nM and 50400 nM.
The like results for `C[C@@H]1c2ccccc2CCN1C(=O)c1cc(C2CC2)n2nc(-c3ccc([C@H]4C[C@H](CO)C4)cc3F)cc2n1` [Compound 41, [trans-3-(4-{7-Cyclopropyl-5-[(1R)-1-methyl-1,2,3,4-tetrahydroisoquinoline-2-carbonyl]pyrazolo[1,5-a]pyrimidin-2-yl}-3-fluorophenyl)cyclobutyl]methanol] were, in that order, 152 nM and 49800 nM.
The like results for `C[C@@H]1c2ccccc2CCN1C(=O)c1cc(C2CC2)n2nc(-c3ccc([C@H]4C[C@H](COC(N)=O)C4)cc3F)cc2n1` [Compound 43, [trans-3-(4-{7-Cyclopropyl-5-[(1R)-1-methyl-1,2,3,4-tetrahydroisoquinoline-2-carbonyl]pyrazolo[1,5-a]pyrimidin-2-yl}-3-fluorophenyl)cyclobutyl]methyl carbamate] were, in that order, 307 nM and above 100000 nM.
For the compound `C[C@@H]1c2ccccc2CCN1C(=O)c1cc(C2CC2)n2nc(-c3ccc([C@H]4C[C@H](CC(N)=O)C4)cc3F)cc2n1` [Compound 45, 2-[trans-3-(4-{7-Cyclopropyl-5-[(1R)-1-methyl-1,2,3,4-tetrahydroisoquinoline-2-carbonyl]pyrazolo[1,5-a]pyrimidin-2-yl}-3-fluorophenyl)cyclobutyl]acetamide], the concentration giving a half-maximal response (EC50) with rgRSV224 virus was determined as 146 nM. The CC50 at 3 days in “in vitro” worked out at 29500 nM.
Take `C[C@@H]1c2ccccc2CCN1C(=O)c1cc(C2CC2)n2nc(-c3ccc([C@H]4C[C@@H](CC(N)=O)C4)cc3F)cc2n1` [Compound 46, 2-[cis-3-(4-{7-Cyclopropyl-5-[(1R)-1-methyl-1,2,3,4-tetrahydroisoquinoline-2-carbonyl]pyrazolo[1,5-a]pyrimidin-2-yl}-3-fluorophenyl)cyclobutyl]acetamide]: in the series on rgRSV224 virus, the concentration giving a half-maximal response (EC50) stood at 145 nM. This compound gave a CC50 at 3 days in “in vitro” of 30400 nM.
For `CNC(=O)C[C@H]1C[C@H](c2ccc(-c3cc4nc(C(=O)N5CCc6ccccc6[C@H]5C)cc(C5CC5)n4n3)c(F)c2)C1` [Compound 47, N-methyl-2-[trans-3-(4-{7-cyclopropyl-5-[(1R)-1-methyl-1,2,3,4-tetrahydroisoquinoline-2-carbonyl]pyrazolo[1,5-a]pyrimidin-2-yl}-3-fluorophenyl)cyclobutyl]acetamide], in that order: 148 nM and 25800 nM.
